# In patent EP4737449A1 (Changchun Genescience Pharmaceutical Co., Ltd., priority 2023, dated 2025):
# Where two headings read alike, the source gives them in different places.
# Legend:
# [1] = molecular target: T1, p53-Y220C mutant protein (Homo sapiens, UniProt P04637, Y220C); experiment: In vitro DNA binding activity assay (TR-FRET); assay type: biochemical; conditions: concentration required to increase the binding activity of protein to DNA by 50%
# T1 construct: The recombinant Y220C p53 DBD protein with his-tag
# Summary of the method: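 SC150, the compound concentration increasing p53-Y220C DNA binding by 50% relative to vehicle, came from background-corrected 665/615 nm TR-FRET ratios. His-tagged DBD and compound were preincubated 60 min at RT before biotin-DNA plus Eu-anti-His/streptavidin-d2 detection overnight in the dark.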
# [2] = test system: NUGC-3 cells; experiment: NUGC-3 cell proliferation assay (CTG, 7 days); assay type: cell-based, human; conditions: NUGC-3 cell proliferation, 7 days, CTG, read-out: IC50
# Procedure: The cells were cultured in strict accordance with ATCC requirements.
# Cell culture medium: 1640 culture medium, 10% serum, 1% penicillin + streptomycin.
# Culture conditions: 37°C, 95% air, 5% carbon dioxide.
# Compounds (20 mM) were subjected to gradient dilution in DMSO: 10 gradients, 3-fold dilution, duplicate wells.
# Positive and negative controls (100% dimethyl sulfoxide) were prepared.
# The compounds that were gradient diluted with DMSO and positive and negative controls (1st and 2nd step), each 75 nL, were transferred to 384-well cell culture plates by Echo550.
# The cells were washed twice with PBS, digested with trypsin, and centrifuged for cell counting.
# The experiment can only be carried out when the cell viability is above 90%.
# The cells were plated into 384-well cell culture plates, with 200 (NUGC-3) cells and 30 µL of culture medium per well.
# The 384-well microplate was placed in a cell culture incubator for 7 days.
# 30 µL of CTG detection reagent was added to the 384-well microplate.
# The 384-well microplate was incubated for 30 min at 37°C, 5% carbon dioxide in the dark.
# The reading was performed by a multi-functional microplate reader Envision.
# % Inhibition is calculated as follows: % Inhibition = 100−(Signalcmpd−SignalAve_BL)/(SignalAve_VC−SignalAve_BL)*100 [formula] • Signalcmpd: Average signal of the compound in the cell plate • Signalave_vc: Average signal of the negative control in the cell plate • Signalave_BL: Average signal of the blank wells in the cell plate
# IC50 was calculated by fitting % inhibition and compound concentration logarithmically to a nonlinear regression (dose response - variable slope) using Graphpad 8.0. Table 2 IC50 of selected compounds in NUGC-3 cell proliferation assay
SMILES,SC150 [1],"IC50 ([2]; Homo sapiens, NUGC-3, 168 h)",IC50 [2]
"CN1CC[C@@H](Nc2cccc3c(CC(F)(F)F)c(C#CCNC(=O)c4csc(C(C)(C)C)n4)nn23)[C@@H](F)C1 [Compound 088, 2-tert-butyl-N-[3-(7-{[(3S,4R)-3-fluoro-1-methylpiperidin-4-yl]amino}-3-(2,2,2-trifluoroethyl)pyrazolo[1,5-a]pyridin-2-yl)prop-2-yn-1-yl]-1,3-thiazole-4-carboxamide]",,7110 nM,
"COc1ccc(C(=O)NCC#Cc2nn3c(N[C@@H]4CCN(C)C[C@@H]4F)cccc3c2CC(F)(F)F)cc1 [Compound 070, N-[3-(7-{[(3S,4R)-3-fluoro-1-methylpiperidin-4-yl]amino}-3-(2,2,2-trifluoroethyl)pyrazolo[1,5-a]pyridin-2-yl)prop-2-yn-1-yl]-4-methoxybenzamide]",,3320 nM,
"CN1CC[C@@H](Nc2cccc3c(CC(F)(F)F)c(C#CCNC(=O)c4ccc(C(C)(C)O)cc4)nn23)[C@@H](F)C1 [Compound 230, N-[3-(7-{[(3S,4R)-3-fluoro-1-methylpiperidin-4-yl]amino}-3-(2,2,2-trifluoroethyl)pyrazolo[1,5-a]pyridin-2-yl)prop-2-yn-1-yl]-4-(2-hydroxyprop-2-yl)benzamide]",29 nM,1060 nM,
"CN1CC[C@@H](Nc2cccc3c(CC(F)(F)F)c(C#CCNC(=O)c4ccccc4)nn23)[C@@H](F)C1 [Compound 069, N-[3-(7-{[(3S,4R)-3-fluoro-1-methylpiperidin-4-yl]amino}-3-(2,2,2-trifluoroethyl)pyrazolo[1,5-a]pyridin-2-yl)prop-2-yn-1-yl]benzamide]",,2850 nM,
"CN1CC[C@@H](Nc2cccc3c(CC(F)(F)F)c(C#CCNC(=O)c4coc(C(C)(C)C)n4)nn23)[C@@H](F)C1 [Compound 090, 2-tert-butyl-N-[3-(7-{[(3S,4R)-3-fluoro-1-methylpiperidin-4-yl]amino}-3-(2,2,2-trifluoroethyl)pyrazolo[1,5-a]pyridin-2-yl)prop-2-yn-1-yl]-1,3-oxazole-4-carboxamide]",,6870 nM,
"CN1CC[C@@H](Nc2cccc3c(CC(F)(F)F)c(C#CCNC(=O)c4cnc(C(C)(C)C)s4)nn23)[C@@H](F)C1 [Compound 089, 2-tert-butyl-N-[3-(7-{[(3S,4R)-3-fluoro-1-methylpiperidin-4-yl]amino}-3-(2,2,2-trifluoroethyl)pyrazolo[1,5-a]pyridin-2-yl)prop-2-yn-1-yl]-1,3-thiazole-5-carboxamide]",,8060 nM,
"COc1ccccc1C(=O)NCC#Cc1nn2c(N[C@@H]3CCN(C)C[C@@H]3F)cccc2c1CC(F)(F)F [Compound 071, N-[3-(7-{[(3S,4R)-3-fluoro-1-methylpiperidin-4-yl]amino}-3-(2,2,2-trifluoroethyl)pyrazolo[1,5-a]pyridin-2-yl)prop-2-yn-1-yl]-2-methoxybenzamide]",,4560 nM,
"CN1CC[C@@H](Nc2cccc3c(CC(F)(F)F)c(C#CCNC(=O)C4CC45CC5)nn23)[C@@H](F)C1 (stereo partly drawn) [Compound 241, N-[3-(7-{[(3S,4R)-3-fluoro-1-methylpiperidin-4-yl]amino}-3-(2,2,2-trifluoroethyl)pyrazolo[1,5-a]pyridin-2-yl)prop-2-yn-1-yl]spiro[2.2]pentane-1-carboxamide]",82 nM,,
"CCN1CC[C@@H](Nc2cccc3c(CC(F)(F)F)c(C#CCNC(=O)c4cnn(CC)c4N)nn23)[C@@H](F)C1 [Compound 364, 5-amino-1-ethyl-N-(3-(7-{[(3S,4R)-1-ethyl-3-fluoropiperidin-4-yl]amino}-3-(2,2,2-trifluoroethyl)pyrazolo[1,5-a]pyridin-2-yl)prop-2-yn-1-yl)-1H-pyrazole-4-carboxamide]",,154 nM,
"CN1CC[C@@H](Nc2cccc3c(CC(F)(F)F)c(C#CCNC(=O)c4cnn(C5CCCC5)c4)nn23)[C@@H](F)C1 [Compound 007, 1-cyclopentyl-N-[3-(7-{[(3S,4R)-3-fluoro-1-methylpiperidin-4-yl]amino}-3-(2,2,2-trifluoroethyl)pyrazolo[1,5-a]pyridin-2-yl)prop-2-yn-1-yl]-1H-pyrazole-4-carboxamide]",11 nM,,

# Continued, in another order:
SC150 [1],SMILES,"IC50 ([2]; Homo sapiens, NUGC-3, 168 h)",IC50 [2]
29 nM,"Cc1ccc(C(=O)NCC#Cc2nn3c(N[C@@H]4CCN(C)C[C@@H]4F)cccc3c2CC(F)(F)F)cn1 [Compound 332, N-[3-(7-{[(3S,4R)-3-fluoro-1-methylpiperidin-4-yl]amino}-3-(2,2,2-trifluoroethyl)pyrazolo[1,5-a]pyridin-2-yl)prop-2-yn-1-yl]-6-methylnicotinamide]",1710 nM,
4 nM,"[2H]C([2H])([2H])N1CC[C@@H](Nc2cccc3c(CC(F)(F)F)c(C#CCNC(=O)c4cnn(C(C)(C)C)c4N)nn23)[C@@H](F)C1 [Compound 311, 5-amino-1-(tert-butyl)-N-[3-(7-{[(3S,4R)-3-fluoro-1-(methyl-d3)piperidin-4-yl]amino}-3-(2,2,2-trifluoroethyl)pyrazolo[1,5-a]pyridin-2-yl)prop-2-yn-1-yl]-1H-pyrazole-4-carboxamide]",173 nM,
59 nM,"Cc1nc(C(=O)NCC#Cc2nn3c(N[C@@H]4CCN(C)C[C@@H]4F)cccc3c2CC(F)(F)F)cn1C [Compound 318, N-[3-(7-{[(3S,4R)-3-fluoro-1-methylpiperidin-4-yl]amino}-3-(2,2,2-trifluoroethyl)pyrazolo[1,5-a]pyridin-2-yl)prop-2-yn-1-yl]-1,2-dimethyl-1H-imidazole-4-carboxamide]",1700 nM,
13 nM,"Cc1cc(C(=O)NCC#Cc2nn3c(N[C@@H]4CCN(C)C[C@@H]4F)cccc3c2CC(F)(F)F)c[nH]1 [Compound 272, N-[3-(7-{[(3S,4R)-3-fluoro-1-methylpiperidin-4-yl]amino}-3-(2,2,2-trifluoroethyl)pyrazolo[1,5-a]pyridin-2-yl)prop-2-yn-1-yl]-5-methyl-1H-pyrrole-3-carboxamide]",1230 nM,
3 nM,"CC(C1CC1)n1ncc(C(=O)NCC#Cc2nn3c(N[C@@H]4CCN(C)C[C@@H]4F)cccc3c2CC(F)(F)F)c1N (single isomer, unassigned) [Compound 291A]",,166 nM
98 nM,"CC(C)c1c(C#CCNC(=O)c2cnn(C(C)(C)C)c2N)nn2c(N[C@@H]3CCN(C)C[C@@H]3F)cccc12 [Compound 362, 5-amino-1-tert-butyl-N-(3-(7-{[(3S,4R)-3-fluoro-1-methylpiperidin-4-yl]amino}-3-(prop-2-yl)pyrazolo[1,5-a]pyridin-2-yl)prop-2-yn-1-yl)-1H-pyrazole-4-carboxamide]",,
49 nM,"CC(C)(C)n1ncc(C(=O)NCC#Cc2nn3c(NC4CCOCC4)cccc3c2CC(F)(F)F)c1N [Compound 361, 5-amino-1-tert-butyl-N-(3-(7-[(tetrahydro-2H-pyran-4-yl)amino]-3-(2,2,2-trifluoroethyl)pyrazolo[1,5-a]pyridin-2-yl)prop-2-yn-1-yl)-1H-pyrazole-4-carboxamide]",,
19 nM,"Cc1c(C(=O)NCC#Cc2nn3c(N[C@@H]4CCN(C)C[C@@H]4F)cccc3c2CC(F)(F)F)cnn1C1CC1 [Compound 282, 1-cyclopropyl-N-[3-(7-{[(3S,4R)-3-fluoro-1-methylpiperidin-4-yl]amino}-3-(2,2,2-trifluoroethyl)pyrazolo[1,5-a]pyridin-2-yl)prop-2-yn-1-yl]-5-methyl-1H-pyrazole-4-carboxamide]",,
28 nM,CN1CC[C@@H](Nc2cccc3c(CC(F)(F)F)c(C#CCNC(=O)c4cnn(CC5CCCC5)c4N)nn23)[C@@H](F)C1 [Compound 285],,
32 nM,"CNc1c(C(=O)NCC#Cc2nn3c(N[C@@H]4CCN(C)C[C@@H]4F)cccc3c2CC(F)(F)F)cnn1C(C)(C)C [Compound 307, 1-(tert-butyl)-N-[3-(7-{[(3S,4R)-3-fluoro-1-methylpiperidin-4-yl]amino}-3-(2,2,2-trifluoroethyl)pyrazolo [1,5-a]pyridin-2-yl)prop-2-yn-1-yl]-5-(methylamino)-1H-pyrazole-4-carboxamide]",,
27 nM,"CN1CC[C@@H](Nc2cccc3c(CC(F)(F)F)c(C#CCNC(=O)c4cnn(C)c4F)nn23)[C@@H](F)C1 [Compound 327, 5-fluoro-N-[3-(7-{[(3S,4R)-3-fluoro-1-methylpiperidin-4-yl]amino}-3-(2,2,2-trifluoroethyl)pyrazolo[1,5-a]pyridin-2-yl)prop-2-yn-1-yl]-1-methyl-1H-pyrazole-4-carboxamide]",,
32 nM,"CN(C)C1CC[C@@H](Nc2cccc3c(CC(F)(F)F)c(C#CCNC(=O)c4cnn(C(C)(C)C)c4N)nn23)[C@@H](F)C1 (single isomer, unassigned) [Compound 358-B]",,
